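Five compound concentrations were applied to cells in 96-well plates for 48 hours; endpoints were derived by simple linear interpolation of the resulting dose-response curve. GI50 = concentration required for 50% inhibition of growth.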 Active and inactive are the calls of the source. Rule as the data show it: active = GI50 up to about 1.1 µM and inactive = higher.
Columns and labels:
Experiment in all cases: inhibition of tumour cell growth, NCI panel, 48 h
[1] = system: BT-549
[2] = system: DU-145
[3] = system: EKVX
[4] = system: HOP-62
[5] = system: IGROV-1
[6] = system: MCF7
[7] = system: MDA-MB-435
[8] = system: NCI-H226
[9] = system: NCI-H460
[10] = system: NCI/ADR-RES
[11] = system: OVCAR-8
[12] = system: PC-3
[13] = system: SK-MEL-28
[14] = system: SNB-75
[15] = system: SW-620
[16] = system: UACC-257
[17] = system: UACC-62
[18] = system: MDA-N

Measured: GI50

CCOC(=O)C1=C(C(=O)c2ccc(C)cc2)C(c2cccc([N+](=O)[O-])c2)C(C(=O)c2ccc(C)cc2)=C(C(=O)OCC)N1
inactive: [1] 21.1 µM | [2] 16.8 µM | [3] 24.1 µM | [4] 19.5 µM | [5] 16.2 µM | [6] 16 µM | [7] 16 µM | [8] 19.1 µM | [9] 31.6 µM | [10] 18.2 µM | [11] 22.5 µM | [12] 23.2 µM | [13] 17.8 µM | [14] 40.9 µM | [15] 14.1 µM | [16] 21.4 µM | [17] 18.2 µM

COC(=O)c1ccccc1C1CN=NC12Cc1cccc(C)c1C2=O (configuration not stated)
inactive: [1] 42.4 µM | [2] > 100 µM | [3] 65.6 µM | [4] 45.2 µM | [5] 59.8 µM | [6] 43 µM | [7] 37.4 µM | [18] 46.7 µM | [8] 49.7 µM | [9] 88.1 µM | [10] 9.84 µM | [11] 42.4 µM | [13] 68.2 µM | [14] 33.3 µM | [15] > 100 µM | [16] 37.3 µM | [17] 34.7 µM

Cc1ccc(S(=O)(=O)N2CCSCCSCCSCCN(S(=O)(=O)c3ccc(C)cc3)CC2)cc1
inactive: [1] > 100 µM | [2] > 100 µM | [3] > 100 µM | [4] > 100 µM | [5] > 100 µM | [6] > 100 µM | [7] > 100 µM | [18] > 100 µM | [8] > 100 µM | [9] > 100 µM | [10] > 100 µM | [11] > 100 µM | [13] > 100 µM | [14] 61 µM | [15] > 100 µM | [16] > 100 µM | [17] > 100 µM

Cc1csc2nc3c(cnn3C)c(=S)n12
inactive: [1] 39.5 µM | [3] 14.9 µM | [4] 50 µM | [5] > 100 µM | [6] > 100 µM | [7] > 100 µM | [18] > 100 µM | [9] > 100 µM | [10] > 100 µM | [11] > 100 µM | [12] > 100 µM | [13] > 100 µM | [14] 28.1 µM | [15] > 100 µM | [16] > 100 µM | [17] > 100 µM

CC(C)[C@@H]1NC(=O)[C@@H]2N=C(O[C@H]2C)[C@H](C(C)C)NC(=O)C2N=C1O[C@H]2C
inactive: [2] > 100 µM | [3] > 100 µM | [4] > 100 µM | [5] > 100 µM | [6] > 100 µM | [7] > 100 µM | [18] > 100 µM | [8] > 100 µM | [9] > 100 µM | [10] > 100 µM | [11] > 100 µM | [12] > 100 µM | [13] > 100 µM | [14] > 100 µM | [15] > 100 µM | [16] > 100 µM | [17] > 100 µM

O=c1[nH]c2cc(C(F)(F)F)ccc2nc1Cc1ccccc1
inactive: [1] > 100 µM | [2] > 100 µM | [3] > 100 µM | [4] 28.9 µM | [5] 46.7 µM | [6] > 100 µM | [7] > 100 µM | [8] > 100 µM | [9] > 100 µM | [10] 67 µM | [11] 80.2 µM | [12] > 100 µM | [13] > 100 µM | [14] 41.6 µM | [15] > 100 µM | [16] > 100 µM | [17] > 100 µM

CCCCC/C(C=O)=C\c1ccccc1
inactive: [1] > 100 µM | [2] > 100 µM | [3] > 100 µM | [4] > 100 µM | [5] > 100 µM | [6] > 100 µM | [7] > 100 µM | [8] > 100 µM | [9] > 100 µM | [10] > 100 µM | [11] > 100 µM | [12] > 100 µM | [13] > 100 µM | [14] > 100 µM | [15] > 100 µM | [16] > 100 µM | [17] > 100 µM

Nc1nc(N)c2nc(CNc3ccc(C(=O)NC(CCC(=O)O)C(=O)O)cc3F)cnc2n1 (configuration not stated)
active: [2] < 0.01 µM | [3] < 0.01 µM | [4] < 0.01 µM | [5] < 0.01 µM | [6] < 0.01 µM | [7] < 0.01 µM | [18] < 0.01 µM | [9] < 0.01 µM | [10] < 0.01 µM | [11] < 0.01 µM | [15] < 0.01 µM | [17] < 0.01 µM
inactive: [8] > 100 µM | [13] > 100 µM | [14] 16.1 µM | [16] > 100 µM

CCOC(=O)c1c(Br)c(-c2ccc(OC)cc2)c(Br)n1C
inactive: [1] 22.4 µM | [2] 32.2 µM | [3] 16.8 µM | [4] 11.8 µM | [5] 22.2 µM | [6] 8.39 µM | [7] 2.37 µM | [8] 22.2 µM | [9] 52.2 µM | [10] 5.18 µM | [11] 27.1 µM | [12] 11.1 µM | [13] 37.6 µM | [14] 1.94 µM | [15] 9.46 µM | [16] 23.2 µM | [17] 5.09 µM

C=CCC1(Sc2ccccn2)Sc2ccc3ccccc3c2-c2c(ccc3ccccc23)S1
inactive: [2] > 100 µM | [3] > 100 µM | [4] > 100 µM | [5] > 100 µM | [6] > 100 µM | [7] > 100 µM | [8] > 100 µM | [9] > 100 µM | [10] > 100 µM | [11] > 100 µM | [12] > 100 µM | [13] > 100 µM | [14] 55.7 µM | [15] > 100 µM | [16] > 100 µM | [17] > 100 µM

CN1CN(c2ccccc2)C2(CCN(CCc3csc4ccccc34)CC2)C1=O
inactive: [1] 4.71 µM | [2] 18.7 µM | [3] 12.8 µM | [4] 12.2 µM | [5] 21.7 µM | [6] 13.3 µM | [7] 14.4 µM | [8] 17.4 µM | [10] 13.8 µM | [11] 21.4 µM | [12] 12 µM | [13] 15.7 µM | [14] 17.3 µM | [15] 16.9 µM | [16] 14.4 µM | [17] 19.9 µM

O=C(NCCCNCCNC(=O)c1cc(-c2ccccc2)nc2ccccc12)c1cc(-c2ccccc2)nc2ccccc12
inactive: [1] 11.6 µM | [3] 2.16 µM | [4] 1.69 µM | [5] 1.95 µM | [6] 1.68 µM | [7] 1.72 µM | [18] 1.87 µM | [8] 2.32 µM | [9] 1.83 µM | [10] 2.05 µM | [11] 1.77 µM | [12] 1.68 µM | [13] 1.82 µM | [14] 1.51 µM | [15] 1.65 µM | [16] 1.67 µM | [17] 2.22 µM

O=S(=O)(CCC[C@H]1[C@@H](CCOCc2ccccc2)C2CCCN1O2)c1ccccc1 (some centres not stated)
inactive: [1] 41 µM | [3] 57.3 µM | [4] > 100 µM | [5] > 100 µM | [6] > 100 µM | [7] > 100 µM | [18] > 100 µM | [8] > 100 µM | [9] > 100 µM | [10] > 100 µM | [11] > 100 µM | [12] > 100 µM | [13] > 100 µM | [14] > 100 µM | [15] > 100 µM | [16] > 100 µM | [17] > 100 µM

CS/C(=N\S(=O)(=O)c1ccc(Cl)cc1)NCCCCN/C(=N/S(=O)(=O)c1ccc(Cl)cc1)SC
inactive: [2] > 100 µM | [3] > 100 µM | [4] > 100 µM | [5] 83 µM | [6] > 100 µM | [7] > 100 µM | [18] > 100 µM | [9] > 100 µM | [10] > 100 µM | [11] 75.3 µM | [12] > 100 µM | [13] 95.3 µM | [14] > 10 µM | [15] > 100 µM | [16] > 100 µM | [17] > 100 µM

CS/C(=N\C#N)NC1CC(n2cc(C)c(=O)[nH]c2=O)OC1CO (configuration not stated)
inactive: [2] > 100 µM | [3] > 100 µM | [4] > 100 µM | [5] > 100 µM | [6] > 100 µM | [7] > 100 µM | [18] > 100 µM | [8] > 100 µM | [9] > 100 µM | [10] > 100 µM | [11] > 100 µM | [12] > 100 µM | [13] > 100 µM | [14] > 100 µM | [15] > 100 µM | [16] > 100 µM | [17] > 100 µM

NC1=CN(Cc2ccccc2)C2=N/C(=C\c3ccccc3)C(=O)N12
inactive: [1] > 100 µM | [2] > 100 µM | [3] > 100 µM | [4] > 100 µM | [5] > 100 µM | [6] > 100 µM | [7] 50.1 µM | [8] > 100 µM | [9] > 100 µM | [10] > 100 µM | [11] > 100 µM | [12] > 100 µM | [13] > 100 µM | [14] > 100 µM | [15] > 100 µM | [16] 40.1 µM | [17] > 100 µM

From ChEMBL document CHEMBL1201862, “PubChem BioAssay data set” (2004)
